{"source": "patent US10463658B2", "about": "“Method of inhibiting FLT3 kinase” (AROG Pharmaceuticals, LLC, priority 2013, dated 2019)", "tested_on": "Molm 13-RES-luc cells that expressed FLT3-ITD/D835Y", "test": "MTT assay in tandutinib-resistant Molm 13-RES-luc cells", "format": "cell-based", "details": "Homo sapiens, tandutinib resistant Molm 13 cells, mean of 3 studies with 6 replicates each (n=18), read-out: IC50 pFLT3 (text: cell viability, MTT assay)", "data": [{"smiles": "CC1(COc2ccc3c(c2)ncn3-c2ccc3cccc(N4CCC(N)CC4)c3n2)COC1", "note": "[Crenolanib, reference compound]", "values": [{"measurement": "IC50", "result": 3.3, "unit": "nM"}]}]}
